Read-outs that look alike come from different tables or passages of the source.
Experiments:
[1] = test system: drug-resistant cell lines of Table 3; assay: Cell line growth retardation assay, resistant cohort; assay type: cell-based, Human; conditions: arithmetic mean of IC50s over the resistant cohort of Table 3, 6 days growth, read-out: AvgRes IC50
How it was run: (§1)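 Over 6 days of treatment at six concentrations (0.0032–10 μM), given after a 24 h post-seeding rest, population doublings were counted by imaging against a pre-dose baseline and compared with vehicle. Per-line IC50 values came from dose-response fits; cohort averages used arithmetic means, with sensitive/resistant grouping based on response to reference MCL1 inhibitors.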

BCL2 = BCL2 (Homo sapiens, UniProt P10415); assay: BCL2 affinity assay (competition binding, qPCR readout); conditions: recombinant BCL2, 11-point 3-fold dilution series
BCL2, sequence (P10415 whole entry): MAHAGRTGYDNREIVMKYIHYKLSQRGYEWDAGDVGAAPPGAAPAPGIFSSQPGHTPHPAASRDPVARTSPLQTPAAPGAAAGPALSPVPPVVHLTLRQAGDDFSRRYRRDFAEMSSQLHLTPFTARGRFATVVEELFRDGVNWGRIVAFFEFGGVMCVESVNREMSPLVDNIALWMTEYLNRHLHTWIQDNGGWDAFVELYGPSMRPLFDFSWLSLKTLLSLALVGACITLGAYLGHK
Description: (§2) Recombinant MCL1, BCL2 and BCXL proteins were prepared in either an E. coli host derived from the BL21 strain or in HEK-293 cells. The recombinant proteins were subsequently tagged with DNA for qPCR detection. Streptavidin-coated magnetic beads were treated for 30 minutes at room temperature with the respective biotinylated peptide ligands for each recombinant protein to generate affinity resins for the assays. The liganded beads were blocked with excess biotin and washed with blocking buffer (SeaBlock (Pierce), 1% BSA, 0.05% Tween 20, 1 mM DTT) to remove unbound ligand and to reduce nonspecific binding. Binding reactions were assembled by combining recombinant protein, liganded affinity beads, and test compounds in 1× binding buffer (20% SeaBlock, 0.17×PBS, 0.05% Tween 20, 6 mM DTT). Test compounds were prepared as 111X stocks in 100% DMSO. The compounds were then diluted directly into the assays such that the final concentration of DMSO was 0.9%. The assay plates were incubated at room temperature with shaking for 1 hour and the affinity beads were washed with wash buffer (1×PBS, 0.05% Tween 20). The beads were then re-suspended in elution buffer (1×PBS, 0.05% Tween 20, 0.5 μM non-biotinylated affinity ligand) and incubated at room temperature with shaking for 30 minutes. The recombinant protein concentration in the eluates was measured by qPCR. Kds were determined using an 11-point 3-fold compound dilution series with three DMSO control points.

[2] = test system: drug-sensitive cell lines of Table 3; assay: Cell line growth retardation assay, sensitive cohort; assay type: cell-based, Human; conditions: for IC50: arithmetic mean of IC50s over the sensitive cohort of Table 3, 6 days growth, read-out: AvgSen IC50; for Fold Diff: average IC50 of resistant cohort divided by average IC50 of sensitive cohort
How it was run: as §1

MCL1 = MCL1 (Homo sapiens, UniProt Q07820); assay: MCL1 affinity assay (competition binding, qPCR readout); conditions: recombinant MCL1, 11-point 3-fold dilution series
MCL1, sequence (Q07820 whole entry): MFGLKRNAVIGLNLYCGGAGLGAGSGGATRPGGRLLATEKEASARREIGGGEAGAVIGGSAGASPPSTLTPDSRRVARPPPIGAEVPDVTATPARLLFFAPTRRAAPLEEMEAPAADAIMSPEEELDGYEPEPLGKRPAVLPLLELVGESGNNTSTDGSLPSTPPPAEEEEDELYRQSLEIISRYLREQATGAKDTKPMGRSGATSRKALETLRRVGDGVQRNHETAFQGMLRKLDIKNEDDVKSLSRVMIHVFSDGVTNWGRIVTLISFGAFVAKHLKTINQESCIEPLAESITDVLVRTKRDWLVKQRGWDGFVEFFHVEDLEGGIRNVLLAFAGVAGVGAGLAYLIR
How it was run: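 Kds derived from an 11-point 3-fold compound series measured by qPCR of protein eluted from ligand beads. Recombinant, DNA-tagged protein from E. coli or HEK-293 was mixed with compound and peptide-liganded beads in SeaBlock/PBS/Tween/DTT buffer for 1 hour at room temperature (0.9% DMSO).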

BCLXL = BCLXL (Homo sapiens, UniProt Q07817); assay: BCLXL affinity assay (competition binding, qPCR readout); conditions: recombinant BCLXL, 11-point 3-fold dilution series
BCLXL, sequence (Q07817 whole entry): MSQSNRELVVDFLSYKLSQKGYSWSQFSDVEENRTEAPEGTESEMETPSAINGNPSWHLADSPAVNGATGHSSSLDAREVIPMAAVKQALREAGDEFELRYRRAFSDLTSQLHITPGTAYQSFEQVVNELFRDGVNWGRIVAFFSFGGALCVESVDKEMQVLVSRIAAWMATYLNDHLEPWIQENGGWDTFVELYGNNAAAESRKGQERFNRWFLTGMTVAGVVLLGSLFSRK
Description: as §2

Kd (BCL2) [nM] | Kd (MCL1) [nM] | Kd (BCLXL) [nM] | Structure (SMILES) | IC50 ([1]; Homo sapiens, 144 h) [nM] | IC50 ([2]; Homo sapiens, 144 h) [nM] | Fold Diff [2] | IC50 [1] [nM] | IC50 [2] [nM]
> 1500 | 101 to 500 | > 1500 | Cc1c(-c2c(-c3cccc4ccoc34)ncc3snc(O[C@H](Cc4ccccc4OCc4ccnn4CC(F)(F)F)C(=O)O)c23)ccc(OCCN2CCN(C)CC2)c1Cl (atropisomer, axis not shown) [Compound 21] | > 5000 | 1000 to 5000 | − (“−” represents a fold difference less than 10) |  | 
> 1500 | 501 to 1500 | > 1500 | Cc1c(-c2c(-c3cccc(C(F)(F)F)c3)ncc3snc(O[C@H](Cc4ccccc4OCc4ccnn4CC(F)(F)F)C(=O)O)c23)ccc(OCCN2CCN(C)CC2)c1Cl (atropisomer, axis not shown) [Compound 22] | > 5000 | 1000 to 5000 | − (“−” represents a fold difference less than 10) |  | 
> 1500 | 101 to 500 | > 1500 | COc1cccc(-c2ncc3snc(O[C@H](Cc4ccccc4OCc4ccnn4CC(F)(F)F)C(=O)O)c3c2-c2ccc(OCCN3CCN(C)CC3)c(Cl)c2C)c1 (atropisomer, axis not shown) [Compound 23] | > 5000 | ≤ 1000 | + (“+” represents a fold difference of 10 or more) |  | 
> 1500 | > 1500 | > 1500 | Cc1c(-c2c(-c3cccc4ccsc34)ncc3snc(O[C@H](Cc4ccccc4OCc4ccnn4CC(F)(F)F)C(=O)O)c23)ccc(OCCN2CCN(C)CC2)c1Cl (atropisomer, axis not shown) [Compound 24] | > 5000 | 1000 to 5000 | − (“−” represents a fold difference less than 10) |  | 
> 1500 | 101 to 500 | > 1500 | Cc1c(-c2c(-c3cccc(F)c3)ncc3snc(O[C@H](Cc4ccccc4OCc4ccnn4CC(F)(F)F)C(=O)O)c23)ccc(OCCN2CCN(C)CC2)c1Cl (atropisomer, axis not shown) [Compound 26] | > 5000 | ≤ 1000 | + (“+” represents a fold difference of 10 or more) |  | 
> 1500 | 101 to 500 | > 1500 | Cc1c(-c2c(-c3ccsc3)ncc3snc(O[C@H](Cc4ccccc4OCc4ccnn4CC(F)(F)F)C(=O)O)c23)ccc(OCCN2CCN(C)CC2)c1Cl (atropisomer, axis not shown) [Compound 27] | > 5000 | 1000 to 5000 | − (“−” represents a fold difference less than 10) |  | 
> 1500 | ≤ 100 | > 1500 | Cc1c(-c2c(C3CCC3)ncc3snc(O[C@H](Cc4ccccc4OCc4ccnn4CC(F)(F)F)C(=O)O)c23)ccc(OCCN2CCN(C)CC2)c1Cl (atropisomer, axis not shown) [Compound 29] | > 5000 | ≤ 1000 | + (“+” represents a fold difference of 10 or more) |  | 
> 1500 | ≤ 100 | > 1500 | Cc1c(-c2c(C3CC3)ncc3snc(O[C@H](Cc4ccccc4OCc4ccnn4CC(F)(F)F)C(=O)O)c23)ccc(OCCN2CCN(C)CC2)c1Cl (atropisomer, axis not shown) [Compound 30] | > 5000 | 1000 to 5000 | − (“−” represents a fold difference less than 10) |  | 
> 1500 | ≤ 100 | > 1500 | COc1cccc(-c2ncc3snc(O[C@H](Cc4ccccc4OCc4ccnc(-c5ccccc5OC)n4)C(=O)O)c3c2-c2ccc(O)c(Cl)c2C)c1 (atropisomer, axis not shown) [Compound 41] | > 5000 | 1000 to 5000 | − (“−” represents a fold difference less than 10) |  | 
> 1500 | ≤ 100 | > 1500 | COc1cccc(-c2ncc3snc(O[C@H](Cc4ccccc4OCc4ccnc(-c5ccccc5OC)n4)C(=O)O)c3c2-c2ccc(OCCN3CCCCC3)c(Cl)c2C)c1 (atropisomer, axis not shown) [Compound 43] | > 5000 | 1000 to 5000 | − (“−” represents a fold difference less than 10) |  | 
> 1500 | ≤ 100 | > 1500 | COCCOc1ccc(-c2c(-c3cccc(OC)c3)ncc3snc(O[C@H](Cc4ccccc4OCc4ccnc(-c5ccccc5OC)n4)C(=O)O)c23)c(C)c1Cl (atropisomer, axis not shown) [Compound 44] | > 5000 | > 5000 | − (“−” represents a fold difference less than 10) |  | 
> 1500 | ≤ 100 | > 1500 | COc1cccc(-c2ncc3snc(O[C@H](Cc4ccccc4OCc4ccnc(-c5ccccc5OC)n4)C(=O)O)c3c2-c2ccc(OCCC3CCN(C)CC3)c(Cl)c2C)c1 (atropisomer, axis not shown) [Compound 45] | > 5000 | 1000 to 5000 | − (“−” represents a fold difference less than 10) |  | 
> 1500 | ≤ 100 | > 1500 | COc1cccc(-c2ncc3snc(O[C@H](Cc4ccccc4OCc4ccnc(-c5ccccc5OC)n4)C(=O)O)c3c2-c2ccc(OCCN(C)C)c(Cl)c2C)c1 (atropisomer, axis not shown) [Compound 46] | > 5000 | ≤ 1000 | + (“+” represents a fold difference of 10 or more) |  | 
> 1500 | ≤ 100 | > 1500 | COc1cccc(-c2ncc3snc(O[C@H](Cc4ccccc4OCc4ccnc(-c5ccccc5OC)n4)C(=O)O)c3c2-c2ccc(OCCCN(C)C)c(Cl)c2C)c1 (atropisomer, axis not shown) [Compound 47] | > 5000 | ≤ 1000 | + (“+” represents a fold difference of 10 or more) |  | 
> 1500 | ≤ 100 | > 1500 | COc1cccc(-c2ncc3snc(O[C@H](Cc4ccccc4OCc4ccnc(-c5ccccc5OC)n4)C(=O)O)c3c2-c2ccc(OC[C@@H]3CCCN3C)c(Cl)c2C)c1 (atropisomer, axis not shown) [Compound 49] |  |  | − (“−” represents a fold difference less than 10) | > 5000 | 1000 to 5000
> 1500 | ≤ 100 | > 1500 | COc1cccc(-c2ncc3snc(O[C@H](Cc4ccccc4OCc4ccnc(-c5ccccc5OC)n4)C(=O)O)c3c2-c2ccc(OCCN3CCCC3)c(Cl)c2C)c1 (atropisomer, axis not shown) [Compound 50] | > 5000 | ≤ 1000 | + (“+” represents a fold difference of 10 or more) |  | 
> 1500 | ≤ 100 | > 1500 | COc1cccc(-c2ncc3snc(O[C@H](Cc4ccccc4OCc4ccnc(-c5ccccc5OC)n4)C(=O)O)c3c2-c2ccc(OC)c(Cl)c2C)c1 (atropisomer, axis not shown) [Compound 51] | > 5000 | 1000 to 5000 | − (“−” represents a fold difference less than 10) |  | 
> 1500 | 501 to 1500 | > 1500 | Cc1c(-c2c(-c3ccccn3)ncc3snc(O[C@H](Cc4ccccc4OCc4ccnn4CC(F)(F)F)C(=O)O)c23)ccc(OCCN2CCN(C)CC2)c1Cl (atropisomer, axis not shown) [Compound 52] | > 5000 | > 5000 | − (“−” represents a fold difference less than 10) |  | 
> 1500 | ≤ 100 | > 1500 | COc1ccccc1-c1nccc(COc2ccccc2C[C@@H](Oc2nsc3cnc(-c4ccccn4)c(-c4ccc(OCCN5CCN(C)CC5)c(Cl)c4C)c23)C(=O)O)n1 (atropisomer, axis not shown) [Compound 53] | > 5000 | > 5000 | − (“−” represents a fold difference less than 10) |  | 
> 1500 | ≤ 100 | > 1500 | COc1ccccc1-c1nccc(COc2ccccc2C[C@@H](Oc2nsc3cnc(C4=CCOCC4)c(-c4ccc(OCCN5CCN(C)CC5)c(Cl)c4C)c23)C(=O)O)n1 (atropisomer, axis not shown) [Compound 54] | > 5000 | 1000 to 5000 | − (“−” represents a fold difference less than 10) |  | 
